From patent publication US12637413B2, “Fatty acid amide hydrolase (FAAH) cleavable prodrugs of thyromimetics and combination with peripherally restricted FAAH inhibitors” (Autobahn Therapeutics, Inc., priority 2021, dated 2026)

Columns and labels:
[1] = molecular target: T1, recombinant human FAAH (rhFAAH) (Homo sapiens, UniProt O00519); experiment: FAAH substrate evaluation (acid metabolite formation); type: biochemical; details: observed rate constant for acid metabolite formation; 0.5 ng/μL rhFAAH, 1 μM test compound, room temperature, 0-60 minutes
T1 construct: purchased Cayman Chemical (Ann Arbor, MI, USA)
T1 sequence (O00519 1-579): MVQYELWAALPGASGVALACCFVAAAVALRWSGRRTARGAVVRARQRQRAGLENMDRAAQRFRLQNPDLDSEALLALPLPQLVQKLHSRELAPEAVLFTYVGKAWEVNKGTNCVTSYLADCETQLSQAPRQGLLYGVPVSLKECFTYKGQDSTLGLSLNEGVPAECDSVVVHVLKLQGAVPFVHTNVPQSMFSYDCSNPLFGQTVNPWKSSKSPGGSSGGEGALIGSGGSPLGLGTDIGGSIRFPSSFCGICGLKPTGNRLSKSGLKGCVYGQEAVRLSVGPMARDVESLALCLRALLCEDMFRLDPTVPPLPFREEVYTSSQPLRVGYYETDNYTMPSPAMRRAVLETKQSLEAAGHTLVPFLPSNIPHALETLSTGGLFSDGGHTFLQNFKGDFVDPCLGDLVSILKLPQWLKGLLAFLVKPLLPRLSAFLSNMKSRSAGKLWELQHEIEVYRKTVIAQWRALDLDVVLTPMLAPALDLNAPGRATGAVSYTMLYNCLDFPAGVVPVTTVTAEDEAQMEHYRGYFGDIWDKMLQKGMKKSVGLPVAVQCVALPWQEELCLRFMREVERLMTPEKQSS
Description: Purified recombinant human FAAH (rhFAAH) was purchased from Cayman Chemical (Ann Arbor, MI, USA). The total volume for each incubation was 400 μL containing a final 0.5 ng/μL rhFAAH, 1 μM test compound, 1.25% ethanol or 1 μM PF-3845 (FAAH inhibitor), and 0.1% bovine serum albumin in Tris-EDTA buffer at pH 8.0). The positive control was LL-341001. The incubation was conducted at the room temperature. At 0, 5, 15, 30 and 60 minutes, an aliquot of 30 μL reaction mixtures was removed and mixed with 300 μL acetonitrile containing 5 ng/mL terfenadine and 10 ng/mL tolbutamide as internal standards to quench the reaction. The resulting mixture was centrifuged at 4000 rpm, 4° C. for 15 minutes, and 100 μL supernatant was ready for LC-MS/MS analysis to measure the formation of acid metabolite.
Acquity Ultra Performance LC system from Waters was used for sample analysis. The chromatography was performed on a reverse phase Kinetex 2.6 μm C18 column, 2.1×30 mm, 100 Å. The mobile phase A comprised of 0.1% formic acid in water and mobile phase B comprised of 0.1% formic acid in acetonitrile with a 2-min run time at the flow rate of 0.8 mL/min for the acid metabolite from positive control or a 1.5 min run time at the flow rate of 0.9 mL/min for the acid metabolite of test compounds. The mass spectrometer (API-5500 and API Q Trap 4000 Applied Biosystems/MDS SCIEX Instruments, Framingham, MA, USA) was operated under ESI positive or negative ion MRM mode.
The formation of acid metabolite was monitored and quantified using one calibration point of 1 μM. The observed rate constant (ke) for the acid metabolite formation was calculated by plotting the metabolite concentration versus time of incubation with the slope being ke and is shown in Table 1.

FAAH = molecular target: T2, FAAH (Mus musculus, UniProt O08914); experiment: tissue distribution after co-dosing prodrug ABX-002 with or without PFI or GFI; type: in vivo, mice; details: plasma, liver and brain, co-dosing with PFI or GFI
T2 construct: from tissue; host or cells: living mice; plasma, liver and brain sampled
T2 sequence (O08914 1-579): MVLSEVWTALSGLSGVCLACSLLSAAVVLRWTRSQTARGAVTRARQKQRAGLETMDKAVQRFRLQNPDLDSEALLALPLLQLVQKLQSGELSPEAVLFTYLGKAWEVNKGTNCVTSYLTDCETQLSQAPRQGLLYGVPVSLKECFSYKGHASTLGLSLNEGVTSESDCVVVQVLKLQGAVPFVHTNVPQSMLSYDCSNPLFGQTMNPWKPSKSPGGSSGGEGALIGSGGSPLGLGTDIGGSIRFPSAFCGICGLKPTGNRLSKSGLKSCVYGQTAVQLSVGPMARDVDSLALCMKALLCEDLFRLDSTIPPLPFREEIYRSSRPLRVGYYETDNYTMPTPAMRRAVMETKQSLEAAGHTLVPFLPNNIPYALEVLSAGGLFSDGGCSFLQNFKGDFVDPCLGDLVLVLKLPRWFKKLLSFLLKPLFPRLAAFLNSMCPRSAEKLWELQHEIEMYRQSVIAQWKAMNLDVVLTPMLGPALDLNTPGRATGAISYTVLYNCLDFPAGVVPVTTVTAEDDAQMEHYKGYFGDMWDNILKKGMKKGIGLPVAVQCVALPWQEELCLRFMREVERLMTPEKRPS
Description: The ability of globally-penetrant and peripherally-restricted FAAH inhibitors (GFI & PFI, respectively) to alter distribution of ABX-002 and ABX-002A was assessed.
Table 5 depicts the inhibition of active metabolite (LL-650177 or PF-044578454) in AUC in the plasma, liver, and brain after prodrug (ABX-002) co-dosing. Tissue distribution studies in mice confirm global & peripheral inhibition of FAAH.

For `CNC(=O)COc1cc(Cl)c(Cc2ccc(O)c(C(C)C)c2)c(Cl)c1` [Compound 1], which ke [1] is on record?
The ke was “A (ke is more than or equal to 0.1)”.

What about the “prodrug levels with FAAH inhibition” value (FAAH) of the same compound?
The value was “did not change or slightly increased”.
